Assay results reported in patent publication US8193168B2, “Use of a TRPM5 inhibitor to regulate insulin and GLP-1 release” (Redpoint Bio Corporation, priority 2007, dated 2012).

Experiments:
GLUTag cells [1] = assay: GLP-1 release from GLUTag cells (GLP-1 ELISA); assay type: cell-based, mouse; conditions: 12.5 mM glucose, FIG. 17
Method: Mouse GLUTag cells are a native intestinal cell line which expresses TRPM5. The cell line was obtained from Dr. Daniel J. Drucker in the Division of Endocrinology, Department of Medicine, at University of Toronto, and grown in Invitrogen Dulbecco's Modified Eagle's Medium (DMEM) high glucose (Cat #: 11995) with 10% fetal bovine serum (FBS) and 1× penn/strep antibiotic mix in a 37° C. incubator with 5% CO2.
All reagents and media were pre-warmed to room temperature prior to the beginning of the experiment. Substrate diluent and the light-sensitive Substrate were thawed out right before use.
BD 96-well Matrigel-coated plates (Fisher, Cat #: 08-774-166) with GLUTag cells were rehydrated using 100 μL of plating media (Invitrogen's (Cat #: 31985) OPTI-Modified Eagle's Medium (MEM) with 10% FBS and 1× penn/strep antibiotic mix) and incubated for 30 minutes in a 37° C. incubator with 5% CO2. GLUTag cells were then trypsinized and counted. A cell dilution with seeding density of 7.5×10^5 cells/ml of GLUTag cells was created. The rehydration media was aspirated from the Matrigel coated plate. […] of cell dilution were plated into each well of the plate. The plates were then incubated overnight in a 37° C. incubator with 5% CO2.
The following protocol utilized the Millipore GLP-1 ELISA Kit (Cat. #: EGLP-35K) to analyze GLP-1 secretion from GLUTag cells in the presence of TRPM5 inhibitors/enhancers and glucose.
Stock solutions and dilution plates of TRPM5 inhibitors or enhancers were prepared. 1% of bovine serum albumin (BSA) was added to Krebb's Ringer Bicarbonate Buffer (KRBB) right before use. KRBB consists of 118.5 mM NaCl, 2.54 mM CaCl2.2H2O, 1.19 mM KH2PO4, 4.74 mM KCl, 25 mM NaHCO3, 1.19 mM MgSO4.7H2O, and 10 mM HEPES buffer at pH 7.4. The cell plates were incubated with 100 μL of KRBB for 30 minutes. The KRBB buffer was then aspirated. This incubation step was repeated once. The KRBB buffer was aspirated and replaced with 150 μL of the same buffer containing various concentration of TRPM5 inhibitors or enhancers and glucose, i.e. 12.5 mM glucose and 1.5 μM TRPM5 inhibitors. KRBB buffer without the TRPM5 inhibitors/enhancers and glucose were also tested in triplicates. Static incubations of treated cells were then performed for 2 h in a 37° C. incubator with 5% CO2.
During the last 30 minutes of the two-hour incubation, 96-well ELISA plates were prepared as follows. […]

GLUTag cells [2] = assay: GLP-1 release from GLUTag cells (GLP-1 ELISA); assay type: cell-based, mouse; conditions: for IC50: Mus musculus, GLUTag cells
[3] = moderately high glucose (3.3 mM), FIG. 18

Row | Structure (SMILES) | GLP-1 secretion (GLUTag cells [1]) | efficacy and potency of GLP-1 secretion, compared between compounds (GLUTag cells [1]) | GLP-1 secretion (GLUTag cells [2]; 10 mM glucose, FIG. 16) | IC50 (GLUTag cells [2]; low glucose (0.1 mM), FIG. 19) [nM] | GLP-1 release (GLUTag cells [2]; low glucose (0.1 mM), FIG. 19) | GLP-1 release (GLUTag cells [2]; [3])
1 | COc1ccc(/C=N/NC(=O)Cc2cccc3ccccc23)cc1OC [Example 3, (E)-N′-(3,4-Dimethoxybenzylidene)-2-(naphthalene-1-yl)acetohydrazide] | increase GLP-1 secretion | increases the efficacy of GLP-1 secretion | enhances GLP-1 secretion | 600 | increase GLP-1 release | increase GLP-1 release
2 | COc1ccc(/C=N/NC(=O)CCn2c3ccccc3c3ccccc32)cc1OC [Example 23, 3-Carbazol-9-ylpropionic acid (3,4-dimethoxybenzylidene)hydrazide] | increase GLP-1 secretion | more potent than the compound of Example 3 | – | 111 | increase GLP-1 release | increase GLP-1 release
